Experimental data as given in US6346603B1, “Crystal of depsipeptide derivative and process for producing the same” (Fujisawa Pharmaceutical Co., Ltd., priority 1997, dated 2002).

Legend:
Format in all cases: physicochemical
[1] = Filtration properties during crystallization, observed with the naked eye; design: key: ⊚: very great filtration properties; ◯: good filtration properties; Δ: poor filtration properties; X: very poor filtration properties; conditions: observation with the naked eye
Protocol: (§1) The crystals (I), (II) and (III) of the depsipeptide derivative (IV), thus recovered in the aforementioned manners, were examined about the filtration properties during crystallization, the specific volume and water content, by using the prior art crystal (V) for comparison.
The filtration properties during crystallization were evaluated on the following standards under observation with the naked eye.
⊚: very great filtration properties
◯: good filtration properties
Δ: poor filtration properties
X: very poor filtration properties

[2] = Water content after standing at ambient temperature to constant weight; conditions: left to stand at ambient temperature until weight reached constant value
Protocol: as §1
As to the water content, additionally, each crystal was left to stand at ambient temperature until its weight reached constant value, wherein an amount of water containing in the crystal was measured in %.

[3] = Fluidity (adhesion properties) of the crystal; conditions: not shown in Table 6; adhesion to machines during production

Filtration property during crystallization [1] | Water content [2] [%] | Fluidity (adhesion properties) [3] | SMILES
× | 3.16 | – | CC(C)CC1C(=O)OC(Cc2ccc(N3CCOCC3)cc2)C(=O)N(C)C(CC(C)C)C(=O)OC(C)C(=O)CCCCN1C (stereo not shown) [Crystal (I)]
⊚ | 0.98 | great fluidity | CC(C)CC1C(=O)OC(Cc2ccc(N3CCOCC3)cc2)C(=O)N(C)C(CC(C)C)C(=O)OC(C)C(=O)CCCCN1C (stereo not shown) [Crystal (II)]
◯ | 0.20 | – | CC(C)CC1C(=O)OC(Cc2ccc(N3CCOCC3)cc2)C(=O)N(C)C(CC(C)C)C(=O)OC(C)C(=O)CCCCN1C (stereo not shown) [Crystal (III)]
× | 2.45 | poor fluidity | CC(C)CC1C(=O)OC(Cc2ccc(N3CCOCC3)cc2)C(=O)N(C)C(CC(C)C)C(=O)OC(C)C(=O)CCCCN1C (stereo not shown) [Prior art Crystal (V), reference compound]
